{"source": "PubChem BioAssay AID1981", "about": "(Southern Research Specialized Biocontainment Screening …, 2009)", "test_system": "S. Typhimurium PhoP-promoter GFP reporter counterscreen, fluorescence, 4 h", "assay": "S. Typhimurium GFP fluorescence modified counterscreen for PhoP regulon inhibitor project dose response (AID 1981)", "data": [{"smiles": "OCCNCc1c(OCc2ccc(Cl)cc2)ccc2ccccc12", "values": [{"measurement": "IC50", "value": 105, "unit": "µM"}]}, {"smiles": "CN1/C(=C\\C=C\\C2=[N+](C)c3ccc4ccccc4c3C2(C)C)C(C)(C)c2ccccc21", "values": [{"measurement": "IC50", "value": 14.1, "unit": "µM"}]}, {"smiles": "Nc1nnc(-c2cccc(Cl)c2Cl)c(N)n1", "values": [{"measurement": "IC50", "value": 66.4, "unit": "µM"}]}, {"smiles": "Clc1ccc(Cl)c(OCCCCNCc2ccccc2)c1", "values": [{"measurement": "IC50", "value": 131, "unit": "µM"}]}, {"smiles": "CCCCCCCCCCOC(=O)Cn1c(COc2ccccc2)[n+](C)c2ccccc21", "values": [{"measurement": "IC50", "value": 64.3, "unit": "µM"}]}, {"smiles": "Cc1ccc(C(c2cc(Cl)c3cccnc3c2O)N2CCN(C)CC2)cc1", "note": "(stereo not drawn)", "values": [{"measurement": "IC50", "value": 41.1, "unit": "µM"}]}, {"smiles": "Nc1ccc2c(c1)C(=O)C(=O)c1ccccc1-2", "values": [{"measurement": "IC50", "value": 10.9, "unit": "µM"}]}, {"smiles": "COc1cnc(-c2ccccn2)[nH]c1=O", "values": [{"measurement": "IC50", "value": 45.7, "unit": "µM"}]}, {"smiles": "CN(O)/C=c1/ccc2c(n1)C(=O)C=CC=2", "values": [{"measurement": "IC50", "value": 54.1, "unit": "µM"}]}, {"smiles": "COc1cccc(/C=N\\NC(=O)Cn2nnc3ccccc32)c1O", "values": [{"measurement": "IC50", "value": 75.1, "unit": "µM"}]}, {"smiles": "Cc1ccc(-c2c[n+](CC(=O)Nc3nc(-c4ccc(F)cc4)cs3)c3n2CCC3)cc1", "values": [{"measurement": "IC50", "value": 72.5, "unit": "µM"}]}, {"smiles": "CCCCCCCCCn1c2c(c(=N)c3c1CCC3)CCCC2", "values": [{"measurement": "IC50", "value": 53.8, "unit": "µM"}]}, {"smiles": "CC(C)(C)/C(O)=C/c1nc2cc(Cl)ccc2oc1=O", "values": [{"measurement": "IC50", "value": 55, "unit": "µM"}]}, {"smiles": "NCC12CC3CC(C1)CC(c1ccc(Br)cc1)(C3)C2", "values": [{"measurement": "IC50", "value": 55.2, "unit": "µM"}]}, {"smiles": "CCCCCCCNC(=O)C1(CC2CC(c3ccc(Cl)cc3)=NO2)CCNCC1", "note": "(stereo not drawn)", "values": [{"measurement": "IC50", "value": 47.8, "unit": "µM"}]}, {"smiles": "CCCCOc1ccc(CSC(=N)N)cc1[N+](=O)[O-]", "values": [{"measurement": "IC50", "value": 131, "unit": "µM"}]}, {"smiles": "CC(=O)Oc1ccc(C(=O)[C@H]2[C@H]3C(=O)N(c4ccc5ccccc5c4)C(=O)[C@H]3[C@@H]3C=CC=NN32)cc1", "values": [{"measurement": "IC50", "value": 138, "unit": "µM"}]}, {"smiles": "O=c1[nH][nH]c(-c2ccccc2O)c1C(C[N+](=O)[O-])c1ccc(Br)cc1", "note": "(stereo not drawn)", "values": [{"measurement": "IC50", "value": 66.5, "unit": "µM"}]}, {"smiles": "CCCCCCCCCCCCCCCCn1cc[n+](CC(C)=O)c1", "values": [{"measurement": "IC50", "value": 86.1, "unit": "µM"}]}, {"smiles": "Oc1ccc(Cl)cc1Cc1cc(Cl)ccc1O", "values": [{"measurement": "IC50", "value": 57, "unit": "µM"}]}, {"smiles": "Oc1cccc(/C=N/NC(=S)Nc2cccnc2)c1O", "values": [{"measurement": "IC50", "value": 28.7, "unit": "µM"}]}, {"smiles": "O=C1c2ccccc2C(=O)N1c1cccc(-c2csc(Nc3ccc4c(c3)OCO4)n2)c1", "values": [{"measurement": "IC50", "value": 128, "unit": "µM"}]}, {"smiles": "CCCC(=O)NC(c1ccc(N(C)C)cc1)c1ccc2cccnc2c1O", "note": "(stereo not drawn)", "values": [{"measurement": "IC50", "value": 49.4, "unit": "µM"}]}, {"smiles": "CN(C)c1ccc(O)c2c1CC1CC3C(N(C)C)C(=O)C(C(N)=O)=C(O)[C@@]3(O)C(=O)C1=C2O", "note": "(stereo partly drawn)", "values": [{"measurement": "IC50", "value": 1.54, "unit": "µM"}]}, {"smiles": "CNc1cc(Cl)c2nonc2c1[N+](=O)[O-]", "values": [{"measurement": "IC50", "value": 115, "unit": "µM"}]}, {"smiles": "C/C(=N\\NC(=O)c1cc2ccccc2cc1O)c1ccccn1", "values": [{"measurement": "IC50", "value": 31.9, "unit": "µM"}]}, {"smiles": "NC1=NC[C@@H](Cc2ccc(O)cc2)N1CCCCC1CCCCC1", "values": [{"measurement": "IC50", "value": 40.2, "unit": "µM"}]}, {"smiles": "CCn1cc(C(=O)NCCCO)c(=O)c2cc(F)c(N3CCN(C)CC3)cc21", "values": [{"measurement": "IC50", "value": 46, "unit": "µM"}]}, {"smiles": "Cc1cccc(Nc2nc(NCc3ccco3)c3ccccc3n2)c1", "values": [{"measurement": "IC50", "value": 37.9, "unit": "µM"}]}, {"smiles": "CCn1cc(C(=O)O)c(=O)c2cc(F)c(N3CCN(C)CC3)cc21", "values": [{"measurement": "IC50", "value": 1.46, "unit": "µM"}]}, {"smiles": "O=C(CN1CCCC1)N/N=C/c1c(O)ccc2ccccc12", "values": [{"measurement": "IC50", "value": 70.6, "unit": "µM"}]}, {"smiles": "CCC(C)(C)c1ccc(OCCCC[n+]2ccccc2)c(C(C)(C)CC)c1", "values": [{"measurement": "IC50", "value": 63.4, "unit": "µM"}]}, {"smiles": "CCc1ccc(-c2nn(-c3ccccc3)cc2CSC(=N)N)cc1", "values": [{"measurement": "IC50", "value": 40.4, "unit": "µM"}]}, {"smiles": "O=c1c(O)cccc2cc(O)c(O)c(O)c12", "values": [{"measurement": "IC50", "value": 18.2, "unit": "µM"}]}, {"smiles": "O=C(N/N=C/c1cc([N+](=O)[O-])ccc1O)C1CC1", "values": [{"measurement": "IC50", "value": 45.2, "unit": "µM"}]}, {"smiles": "COc1cc(/C=C/[N+](=O)[O-])ccc1O", "values": [{"measurement": "IC50", "value": 65.1, "unit": "µM"}]}, {"smiles": "CC(C(=O)c1ccc(-c2ccccc2)cc1)[n+]1cccc(NC(=O)c2ccccc2)c1", "note": "(stereo not drawn)", "values": [{"measurement": "IC50", "value": 106, "unit": "µM"}]}, {"smiles": "Fc1ccc(Nc2nc(NCc3ccco3)c3ccccc3n2)cc1", "values": [{"measurement": "IC50", "value": 32.6, "unit": "µM"}]}, {"smiles": "O=C(OCC1O[C@@H](OC(=O)c2cc(O)c(O)c(O)c2)[C@@H](OC(=O)c2cc(O)c(O)c(O)c2)[C@@H](OC(=O)c2cc(O)c(O)c(O)c2)[C@@H]1OC(=O)c1cc(O)c(O)c(O)c1)c1cc(O)c(O)c(O)c1", "note": "(stereo partly drawn)", "values": [{"measurement": "IC50", "value": 83.1, "unit": "µM"}]}, {"smiles": "CCn1cc(C(=O)O)c(=O)c2cc(F)c(N3CCN(C(=S)Nc4ccc(OC)cc4)CC3)cc21", "values": [{"measurement": "IC50", "value": 7.49, "unit": "µM"}]}, {"smiles": "CO[C@H]1C=CO[C@@]2(C)Oc3c(C)c(O)c4c(O)c(c(C=NN5CCN(C)CC5)c(O)c4c3C2=O)NC(=O)C(C)=CC=C[C@H](C)[C@H](O)[C@@H](C)[C@@H](O)[C@@H](C)[C@H](OC(C)=O)[C@@H]1C", "values": [{"measurement": "IC50", "value": 11.2, "unit": "µM"}]}, {"smiles": "Nc1ncn([C@@H]2O[C@H](CO)[C@@H](O)[C@H]2O)c(=O)n1", "values": [{"measurement": "IC50", "value": 19.4, "unit": "µM"}]}, {"smiles": "CCn1cc(C(=O)O)c(=O)c2cc(F)c(N3CCN(C(=S)NC(=O)c4cccc(C)c4)CC3)cc21", "values": [{"measurement": "IC50", "value": 25.4, "unit": "µM"}]}]}
